Assay results published in patent US8742158B2, “Protease inhibitors” (TaiMed Biologics, Inc., priority 2006, dated 2014).
Several values for one entry are separate records, joined by “and”; a condition that tells them apart may be missing. Equal entries are not always repeated. Where two headings read alike, the source gives them in different places.

Experiments:
HIV-1 viral strain NL4-3 = assay: Anti-viral assay in vitro (MTT, infected MT-4 cells, six days); format: cell-based; conditions: Human immunodeficiency virus 1, NL43, MT4, 144 h, read-out: ANTI-HIV-EC50 VIRAL STRAIN NL4-3
Experimental: Anti-Viral and Cytotoxicity Assays In Vitro
• To evaluate the EC50 of our compounds, various drug concentrations are incubated with the infected cell for six days and then the metabolic activity of the cells is monitored by the MTT assay. (See A. J. Japour et al., Antimicrobial Agents and Chemotherapy, 37, 1095-1101, 1993 and R. Pauwels et al. Journal of Virological Methods, 20, 309-321, 1988) • We use the laboratory viral strain NL4.3 as wild type virus and the cell line used is MT-4 which is a T-cell line highly sensitive to HIV-1. We also use some WT clinical strains. To address the resistance issue we assay the inhibitors with NL4.3 mutants which are designed to be resistant to specific commercially available inhibitors. • The same MTT assay is used to evaluate the CCIC50 (cell culture of IC50) of our compounds except that the virus is omitted.

HIV-1 Protease = HIV-1 Protease (Human immunodeficiency virus type 1 group M subtype B (isolate HXB2) (HIV-1), UniProt P04585); assay: Enzymatic (FRET fluorometric) assay for determining the inhibition constant (Ki) of compounds targeting the HIV protease; format: biochemical; conditions: for IC50: read-out: IC50 ENZYME HIV-1 Protease
Source text: Enzymatic Assay for Determining the Inhibition Constant (Ki) of Synthetic Compounds Targeting the HIV Protease
This is a fluorometric assay based on the cleavage by protease of a substrate carrying a donor group (EDANS) and an acceptor group (DABCYL) on each side of the cleavage site, interacting together through fluorescence resonance energy transfer (FRET) as described by Matayoshi et al. (Science 247:[…], 1990).
After calculation of Vo and Vi, the inhibition constant (Ki) of the compound is determined using the equation of Henderson:
where Vo=the enzyme's initial velocity
Vi=the enzyme velocity in the presence of the inhibitory compound,
[I]=inhibitor concentration, [S]=substrate concentration,
Km=Michaelis-Menten constant and Kiapp=apparent Ki
Graphs are traced and the Ki determined using GraphPad Prism software v. 3.0.

[1] = KIGRAPHIC ENZYME HIV-1 Protease, Ki determined graphically, read-out: […] ENZYME HIV-1 Protease
[2] = calculated Ki, read-out: KI-CALC ENZYME HIV-1 Protease

Which results are given for `COC(=O)N[C@H](C(=O)NCCCC[C@H](C(N)=O)N(CC(C)C)S(=O)(=O)c1ccc(N)cc1)C(c1ccccc1)c1ccccc1` [EX. 7]?
EC50 (HIV-1 viral strain NL4-3): 30 nM; Ki (HIV-1 Protease; [1]): 0.049 nM and 0.042 nM; IC50 (HIV-1 Protease): 0.652 nM and 0.507 nM

How did the EC50 (HIV-1 viral strain NL4-3) turn out when `COC(=O)N[C@H](C(=O)NCCCC[C@@H](CO)N(Cc1cccnc1)S(=O)(=O)c1ccc(N)cc1)C(c1ccccc1)c1ccccc1` [EX. 33] was run?
The EC50 was 196 nM.

What about the Ki (HIV-1 Protease; [2]) of the same compound?
Its Ki is less than 3.8 nM.

And the IC50 (HIV-1 Protease)?
Its IC50 is 1.01 nM.

For `Cc1ncccc1C(=O)N[C@@H](Cc1ccccc1Br)C(=O)NCCCC[C@@H](CO)N(CC(C)C)S(=O)(=O)c1ccc(N)cc1` [EX. 39], which EC50 (HIV-1 viral strain NL4-3) is on record?
Its EC50 is 70 nM.

What about the Ki (HIV-1 Protease; [1]) of the same compound?
Its Ki is 0.183 nM.

And the Ki (HIV-1 Protease; [2])?
The Ki was less than 3.8 nM.

What about the IC50 (HIV-1 Protease) of the same compound?
The IC50 was 0.58 nM.

Which results are given for `Cc1ccc(C(=O)N[C@@H](Cc2ccccc2Br)C(=O)NCCCC[C@@H](CO)N(CC(C)C)S(=O)(=O)c2ccc(N)cc2)cn1` [EX. 40]?
EC50 (HIV-1 viral strain NL4-3): 55 nM; Ki (HIV-1 Protease; [1]): 0.217 nM; Ki (HIV-1 Protease; [2]): < 3.8 nM; IC50 (HIV-1 Protease): 0.567 nM

For `CC(C)CN([C@H](CO)CCCCNC(=O)[C@@H](Cc1ccccc1Br)NC(=O)c1ccc2c(c1)OCO2)S(=O)(=O)c1ccc(N)cc1` [EX. 41], which EC50 (HIV-1 viral strain NL4-3) is on record?
Its EC50 is 43 nM.

What about the Ki (HIV-1 Protease; [1]) of the same compound?
The Ki was 0.05 nM.

And the IC50 (HIV-1 Protease)?
Its IC50 is 0.336 nM.

What does the source list for `CC(C)CN([C@H](CO)CCCCNC(=O)C(Cc1ccccc1Br)NC(=O)c1ccncc1)S(=O)(=O)c1ccc(N)cc1` (stereo partly drawn) [EX. 42]?
EC50 (HIV-1 viral strain NL4-3): 40 nM; Ki (HIV-1 Protease; [1]): 0.182 nM; Ki (HIV-1 Protease; [2]): < 3.8 nM; IC50 (HIV-1 Protease): 0.618 nM

With `CC(C)CN([C@H](CO)CCCCNC(=O)[C@H](Cc1ccccc1Br)NC(=O)c1cnccn1)S(=O)(=O)c1ccc(N)cc1` [EX. 44] as the compound, how does the EC50 (HIV-1 viral strain NL4-3) read?
Its EC50 is 60 nM.

And the Ki (HIV-1 Protease; [1])?
Its Ki is 0.318 nM.

And the IC50 (HIV-1 Protease)?
Its IC50 is 0.471 nM.
